Tests used:
Details in all cases: incubation time: 72 h
HDQ-P1 [1] = test: drug sensitivity score (DSS), CellTiter-Blue viability (DSS (AUC-based score)); higher = stronger viability inhibition; extreme values may be limits of the assay
Method in brief: (§1)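 Into 384-well plates carrying compound in a 5- or 9-concentration series went 20 µl of breast cancer cell suspension, followed by 72 h of incubation. Adding 2.5 µl CellTiter-Blue per well and incubating 2 h at 37 °C preceded fluorescence measurement at 560/590 nm. After normalisation of each plate to 0.1 % DMSO and a positive kill control, dose-response curves were fitted and the area beneath them taken as the drug sensitivity score.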

HCC1599 [2] = test: as above
Method in brief: as §1

MDA-MB-468 [3] = test: as above
Method in brief: as §1

CAL-120 [4] = test: as above
Method in brief: as §1

CAL-85-1 [5] = test: as above
Method in brief: as §1

MFM-223 [6] = test: as above
Method in brief: as §1

CAL-148 [7] = test: as above
Method in brief: as §1

SK-BR-3 = test: as above
Method in brief: as §1

MDA-MB-453 [8] = test: as above
Method in brief: as §1

DU-4475 [9] = test: as above
Method in brief: as §1

Hs578T [10] = test: as above
Method in brief: as §1

MCF-10A = test: drug sensitivity score (DSS), CellTiter-Glo (DSS (AUC-based score)); higher = stronger drug effect (viability inhibition or cytotoxicity); extreme values may be limits of the assay
Method in brief: (§2)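 Breast cancer cell lines, seeded as 20 µl suspension, were incubated 72 h with compound in 384-well plates at 5 concentrations in 10-fold steps over a 10,000-fold range set for each compound. Fluorescence from CellTox Green was read at 485/520 nm before CellTiter-Glo luminescence, which was read after 10 min at room temperature. Every plate was normalised to 0.1 % DMSO and a positive kill control, and the drug sensitivity score was taken from the area under the fitted dose-response curve.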

CAL-51 = test: as above
Method in brief: as §2

HCC1143 = test: as above
Method in brief: as §2

HDQ-P1 [11] = test: as above
Method in brief: as §2

HCC1599 [12] = test: as above
Method in brief: as §2

MDA-MB-468 [13] = test: as above
Method in brief: as §2

CAL-120 [14] = test: as above
Method in brief: as §2

CAL-85-1 [15] = test: as above
Method in brief: as §2

MFM-223 [16] = test: as above
Method in brief: as §2

CAL-148 [17] = test: as above
Method in brief: as §2

BT-474 = test: as above
Method in brief: as §2

MDA-MB-436 = test: as above
Method in brief: as §2

MDA-MB-453 [18] = test: as above
Method in brief: as §2

DU-4475 [19] = test: as above
Method in brief: as §2

Hs578T [20] = test: as above
Method in brief: as §2

| SMILES | drug sensitivity score (HDQ-P1 [1]) | drug sensitivity score (HCC1599 [2]) | drug sensitivity score (MDA-MB-468 [3]) | drug sensitivity score (CAL-120 [4]) | drug sensitivity score (CAL-85-1 [5]) | drug sensitivity score (MFM-223 [6]) | drug sensitivity score (CAL-148 [7]) | drug sensitivity score (SK-BR-3) | drug sensitivity score (MDA-MB-453 [8]) | drug sensitivity score (DU-4475 [9]) | drug sensitivity score (Hs578T [10]) | drug sensitivity score (MCF-10A) | drug sensitivity score (CAL-51) | drug sensitivity score (HCC1143) | drug sensitivity score (HDQ-P1 [11]) | drug sensitivity score (HCC1599 [12]) | drug sensitivity score (MDA-MB-468 [13]) | drug sensitivity score (CAL-120 [14]) | drug sensitivity score (CAL-85-1 [15]) | drug sensitivity score (MFM-223 [16]) | drug sensitivity score (CAL-148 [17]) | drug sensitivity score (BT-474) | drug sensitivity score (MDA-MB-436) | drug sensitivity score (MDA-MB-453 [18]) | drug sensitivity score (DU-4475 [19]) | drug sensitivity score (Hs578T [20]) |
| --- | --- | --- | --- | --- | --- | --- | --- | --- | --- | --- | --- | --- | --- | --- | --- | --- | --- | --- | --- | --- | --- | --- | --- | --- | --- | --- |
| CCS(=O)(=O)c1cccc(-c2cc(C(=O)NC3CCN(C)CC3)c(C)c3[nH]c4ncc(C)cc4c23)c1 [TAK-901] | 5.84 | 4.14 | 0.762 | 10 | 5.05 | 10.3 | 0 | 0 | 10.7 | 3.52 | 6.31 | 7.18 | 0 | 4.84 | 3.52 | 0 | 12.3 | 4.67 | 0 | 5.76 | 0 | 6.57 | 2.45 | 0 | 0 | 1.14 |
| COC1=CC(c2cc3ccccc3[nH]2)=N/C1=C\c1[nH]c(C)cc1C [Obatoclax] | 15.4 | 7.48 | 16.6 | 25.3 | 8.55 | 7.09 | 4.47 | 20.1 | 13.8 | 2.24 | 16.6 | 0 | 4.52 | 0 | 0 | 0 | 3.12 | 0 | 4.01 | 0 | 0 | 7.09 | 1.64 | 2.69 | 0.576 | 0 |
| CS(=O)(=O)OCCCCOS(C)(=O)=O [Busulfan] | 0 | 0 | 0 | 0 | 0 | 0 | 0 | 0 | 0 | 0 | 0 | 0 | 0 | 0 | 0 | 0 | 0 | 0 | 0 | 0 | 0 | 0.000307 | 0 | 0 | 0 | 0 |
| CCOc1cc2ncc(C#N)c(Nc3ccc(OCc4ccccn4)c(Cl)c3)c2cc1NC(=O)/C=C/CN(C)C [Neratinib] | 0 | 0 | 0 | 0 | 0 | 0 | 0 | 0 | 4.42 | 0 | 0 | 11 | 1.09 | 0 | 6.58 | 0 | 4.31 | 1.19 | 7.08 | 0.624 | 2.61 | 0 | 0 | 8.47 | 0 | 0 |
| CC(C)(C)c1cc(NC(=O)Nc2ccc(-c3cn4c(n3)sc3cc(OCCN5CCOCC5)ccc34)cc2)no1 [Quizartinib] | 0 | 0.62 | 0 | 0 | 0 | 0 | 0 | 0 | 0 | 0 | 0 | 0 | 0 | 0 | 0 | 0 | 0 | 0 | 0 | 0 | 0 | 0 | 0 | 0 | 0 | 0 |
| C[C@@H]1C=C2C(=O)O[C@@H]3CC[C@H](C1)[C@]23O [Galiellalactone] | 2.82 | 0 | 6.59 | 0 | 9.4 | 2.28 | 4.5 | 6.66 | 8.97 | 0 | 0.961 | 0 | 4.43 | 0 | 0 | 0 | 6.03 | 0 | 1.79 | 0 | 0 | 0 | 0 | 0 | 0 | 0 |
| COc1ccc(C2=N[C@@H](c3ccc(Cl)cc3)[C@@H](c3ccc(Cl)cc3)N2C(=O)N2CCNC(=O)C2)c(OC(C)C)c1 [Nutlin-3] | 0 | 0 | 0 | 0 | 0 | 0 | 0 | 0 | 0 | 3.53 | 0 | 0 | 10.8 | 0 | 0 | 0 | 0 | 0 | 0 | 0 | 0.553 | 0 | 0 | 0.52 | 0.984 | 0 |
| O=c1[nH]c(=O)n([C@H]2C[C@H](O)[C@@H](CO)O2)cc1F [Floxuridine] | 0 | 0.768 | 17.8 | 19.1 | 14 | 0 | 18.3 | 17.9 | 4.36 | 0 | 9.02 | 0 | 17.3 | 0 | 2.32 | 9.95 | 6.72 | 11.1 | 17.5 | 0 | 0 | 5.99 | 9.72 | 0 | 1.58 | 24.7 |
